According to patent US20230089073A1 (Carmot Therapeutics, Inc., priority 2021, published 2023):
pEC50: −log10 of the molar value.

Key:
human GLP-1 receptor = target: T1, human GLP-1 receptor (Homo sapiens, UniProt P43220); experiment: GLP-1R cAMP Assay; format: cell-based; details: cAMP accumulation in CHO cells stably overexpressing the human GLP-1 receptor; 30 min treatment; HitHunter cAMP kit; read-out: EC50
T1 construct: expressed in transfected cells
In short: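 CHO cells stably overexpressing human GLP-1R, 10,000 cells/well, treated with compound in 20-point dose response in triplicate for 30 min. cAMP accumulation read by enzyme-complementation luminescence after lysis and overnight incubation; dose-response curves fitted.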

cynomolgus monkeys = experiment: Intravenous Glucose Tolerance Test (IVGTT) in Cynomolgus Monkeys; format: in vivo, cynomolgus monkeys (Macaca fascicularis); details: test article intravenous bolus 1-6 minutes prior to IV glucose 0.5 g/kg, plasma insulin 0-60 minutes, FIG. 1
Procedure: Intravenous Glucose Tolerance Test (IVGTT) in Cynomolgus Monkeys
Aged ([…]) cynomolgus monkeys (Macaca fascicularis; N=4-5/test article) were fasted overnight and anesthetized with ketamine prior to the intravenous glucose tolerance test (IVGTT). The test articles were formulated at 6 mg/mL in vehicle (5% polyethylene glycol 400: 95% (12% (w/v) sulfobutylether-β-cyclodextrin in deionized water) (v/v)]) and administered by intravenous bolus into a peripheral vein 1-6 minutes prior to the IVGTT. The IVGTT was initiated by administration of an IV bolus of glucose (0.5 g/kg as a 50% glucose solution). Blood samples were collected from a peripheral vein 0, 1, 3, 5, 10, 20, 40 and 60 minutes upon completion of the IV bolus glucose injection. The blood samples were collected directly into potassium ethylene diamine tetra-acetic acid tubes and plasma separated by centrifugation at 2,500 g for 10 minutes within 30 minutes of collection. The plasma from all time points was analyzed for insulin concentrations ([…]) using a Cobas e411 Immunology analyzer. Insulin area-under-the-curve (AUC) was calculated using GraphPad Prism software (v 9).

T1 sequence (P43220 24-463): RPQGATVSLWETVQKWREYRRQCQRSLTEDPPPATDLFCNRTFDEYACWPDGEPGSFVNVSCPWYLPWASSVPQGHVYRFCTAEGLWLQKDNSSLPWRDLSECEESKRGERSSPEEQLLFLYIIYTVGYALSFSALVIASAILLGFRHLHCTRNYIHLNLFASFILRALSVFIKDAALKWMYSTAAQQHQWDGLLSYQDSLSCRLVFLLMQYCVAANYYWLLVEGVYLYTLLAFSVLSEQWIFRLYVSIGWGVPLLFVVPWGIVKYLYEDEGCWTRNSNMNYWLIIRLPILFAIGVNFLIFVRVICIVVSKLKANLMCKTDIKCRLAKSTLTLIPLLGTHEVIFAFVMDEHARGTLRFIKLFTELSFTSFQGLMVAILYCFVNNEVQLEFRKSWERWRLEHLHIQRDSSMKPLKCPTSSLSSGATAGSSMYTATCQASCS

Compound | pEC50 (human GLP-1 receptor) | insulin AUC (insulin secretion) (cynomolgus monkeys)
O=C(O)c1cc(F)c2nc(CN3CCC(Oc4ccnc(COc5ccc(Cl)cc5F)c4)CC3)n(C[C@@H]3CCO3)c2c1 [Compound 335] | > 7.30 | substantial increase
CCn1cncc1Cn1c(CN2CCC(Oc3ccnc(COc4ccc(Cl)cc4Cl)c3)CC2)nc2ccc(C(=O)O)cc21 [Example 145, 2-((4-((2-((2,4-Dichlorophenoxy)methyl)pyridin-4-yl)oxy)piperidin-1-yl)methyl)-1-((1-ethyl-1H-imidazol-5-yl)methyl)-1H-benzo[d]imidazole-6-carboxylic acid] | > 7.30 | substantial increase
C[C@H]1C[C@@H](Oc2ccnc(COc3ccc(F)cc3C#N)n2)CCN1Cc1nc2ccc(C(=O)O)cc2n1C[C@@H]1CCO1 [Example 355, 2-(((2S,4S)-4-((2-((2-cyano-4-fluorophenoxy)methyl)pyrimidin-4-yl)oxy)-2-methylpiperidin-1-yl)methyl)-1-(((S)-oxetan-2-yl)methyl)-1H-benzo[d]imidazole-6-carboxylic acid] | > 7.30 | substantial increase
C[C@H]1C[C@@H](Oc2ccnc(COc3ccc(C#N)cc3F)n2)CCN1Cc1nc2ccc(C(=O)O)cc2n1C[C@@H]1CCO1 [Example 313, 2-(((2S,4S)-4-((2-((4-Cyano-2-fluorophenoxy)methyl)pyrimidin-4-yl)oxy)-2-methylpiperidin-1-yl)methyl)-1-(((S)-oxetan-2-yl)methyl)-1H-benzo[d]imidazole-6-carboxylic acid] | > 7.30 | substantial increase
O=C(O)c1ccc2nc(CN3CCC(Oc4ccnc(COc5ccc(C(F)(F)F)cc5F)n4)CC3)n(C[C@@H]3CCO3)c2c1 [Compound 338] | > 7.30 | substantial increase
O=C(O)c1ccc2nc(CN3CCC(Oc4ccnc(COc5ccc(F)cc5Cl)n4)CC3)n(C[C@@H]3CCO3)c2c1 [Compound 326] | > 7.30 | substantial increase
CCn1cncc1Cn1c(CN2CCC(Oc3ccnc(COc4ccc(Cl)cc4C#N)c3)CC2)nc2ccc(C(=O)O)cc21 [Compound 171, 2-{[4-({2-[(4-chloro-2-cyanophenoxy)methyl]pyridin-4-yl}oxy)piperidin-1-yl]methyl}-1-[(1-ethyl-1H-imidazol-5-yl)methyl]-1H-1,3-benzodiazole-6-carboxylic acid] | > 7.30 | substantial increase
O=C(O)c1ccc2nc(CN3CCC(Cc4cccc(COc5ccc(Cl)cc5Cl)c4)CC3)n(C[C@@H]3CCCO3)c2c1 [Compound 151, 2-{[4-({3-[(2,4-dichlorophenoxy)methyl]phenyl}methyl)piperidin-1-yl]methyl}-1-{[(2S)-oxolan-2-yl]methyl}-1H-1,3-benzodiazole-6-carboxylic acid] | > 7.30 | –
N#CCC1(Cn2c(CN3CCC(Oc4ccnc(COc5ccc(F)cc5C#N)n4)CC3)nc3ccc(C(=O)O)cc32)CC1 [Compound 348] | > 7.30 | –
N#Cc1cc(F)ccc1OCc1nccc(OC2CCN(Cc3nc4c(F)cc(C(=O)O)cc4n3C[C@@H]3CCO3)CC2)n1 [Compound 307] | > 7.30 | –
N#Cc1ccc(OCc2cccc(OC3CCN(Cc4nc5c(F)cc(C(=O)O)cc5n4CC4(CF)CC4)CC3)c2)c(F)c1 [Example 300, 2-((4-(3-((4-Cyano-2-fluorophenoxy)methyl)phenoxy)piperidin-1-yl)methyl)-4-fluoro-1-((1-(fluoromethyl)cyclopropyl)methyl)-1H-benzo[d]imidazole-6-carboxylic acid] | > 7.30 | –
O=C(O)c1ccc2nc(CN3CCC(Cc4ccc(F)c(COc5ccc(Cl)cc5Cl)c4)CC3)n(C[C@@H]3CCO3)c2c1 [Compound 162, 2-{[4-({3-[(2,4-dichlorophenoxy)methyl]-4-fluorophenyl}methyl)piperidin-1-yl]methyl}-1-{[(2S)-oxetan-2-yl]methyl}-1H-1,3-benzodiazole-6-carboxylic acid] | > 7.30 | –
N#Cc1ccc(OCc2nccc(OC3CCN(Cc4nc5ccc(C(=O)O)nc5n4C[C@@H]4CCO4)CC3)n2)c(F)c1 [Compound 373] | > 7.30 | –
C[C@H]1C[C@@H](Oc2cccc(COc3ccc(C#N)cc3F)c2)CCN1Cc1nc2ccc(C(=O)O)cc2n1C[C@@H]1CCO1 [Compound 319] | > 7.30 | –
O=C(O)c1ccc2nc(CN3CCC(Oc4ccnc(COc5ccc(Cl)cc5F)c4)CC3)n(CC3(CF)CC3)c2c1 [Compound 321] | > 7.30 | –
O=C(O)c1ccc2nc(CN3CCC(Oc4cccc(COc5ccc(Cl)cc5F)n4)CC3)n(C[C@@H]3CCO3)c2c1 [Compound 249, 2-{[4-({6-[(4-chloro-2-fluorophenoxy)methyl]pyridin-2-yl}oxy)piperidin-1-yl]methyl}-1-{[(2S)-oxetan-2-yl]methyl}-1H-1,3-benzodiazole-6-carboxylic acid] | > 7.30 | –
Cn1cncc1Cn1c(CN2CCC(Oc3cccc(COc4ccc(Cl)cc4F)n3)CC2)nc2ccc(C(=O)O)cc21 [Compound 264, 2-{[4-({6-[(4-chloro-2-fluorophenoxy)methyl]pyridin-2-yl}oxy)piperidin-1-yl]methyl}-1-[(1-methyl-1H-imidazol-5-yl)methyl]-1H-1,3-benzodiazole-6-carboxylic acid] | > 7.30 | –
O=C(O)c1ccc2nc(CN3CCN(C(=O)c4cnc(COc5ccc(Cl)cc5Cl)o4)CC3)n(C[C@@H]3CCO3)c2c1 [Example 102, (S)-2-((4-(2-((2,4-Dichlorophenoxy)methyl)oxazole-5-carbonyl)piperazin-1-yl)methyl)-1-(oxetan-2-ylmethyl)-1H-benzo[d]imidazole-6-carboxylic acid] | 6.30 to 7.30 | –
O=C(O)c1ccc2nc(CN3CCC(Oc4ccnc(COc5ccc(F)cc5Cl)n4)CC3)n(C[C@H]3CCN3C(=O)c3ccon3)c2c1 [Example 483, (R)-2-((4-((2-((2-Chloro-4-fluorophenoxy)methyl)pyrimidin-4-yl)oxy)piperidin-1-yl)methyl)-1-((1-(isoxazole-3-carbonyl)azetidin-2-yl)methyl)-1H-benzo[d]imidazole-6-carboxylic acid] | > 7.30 | –
CCn1cncc1Cn1c(CN2CCN(C(=O)c3cccc(Oc4ccc(C)cc4Cl)c3)CC2)nc2ccc(C(=O)O)cc21 [Example 57, 2-((4-(3-(2-Chloro-4-methylphenoxy)benzoyl)piperazin-1-yl)methyl)-1-((1-ethyl-1H-imidazol-5-yl)methyl)-1H-benzo[d]imidazole-6-carboxylic acid] | 6.30 to 7.30 | –
O=C(O)c1ccc2nc(CN3CCC(Oc4cccc(COc5ccc(Cl)cc5F)n4)CC3)n(Cc3ccno3)c2c1 [Compound 270, 2-{[4-({6-[(4-chloro-2-fluorophenoxy)methyl]pyridin-2-yl}oxy)piperidin-1-yl]methyl}-1-[(1,2-oxazol-5-yl)methyl]-1H-1,3-benzodiazole-6-carboxylic acid] | > 7.30 | –
COC(=O)c1ccc2nc(CN3CCN(C(=O)c4ccc(COc5cccc(Cl)c5C)o4)CC3)n(C[C@@H]3CCO3)c2c1 [Compound 24, methyl 2-[(4-{5-[(3-chloro-2-methylphenoxy)methyl]furan-2-carbonyl}piperazin-1-yl)methyl]-1-{[(2S)-oxetan-2-yl]methyl}-1H-1,3-benzodiazole-6-carboxylate] | < 6.30 | –
CCn1cncc1Cn1c(CN2CCC(Cc3cccc(COc4ccc(Cl)cc4Cl)c3)CC2)nc2ccc(C(=O)O)cc21 [Compound 104, 2-{[4-({3-[(2,4-dichlorophenoxy)methyl]phenyl}methyl)piperidin-1-yl]methyl}-1-[(1-ethyl-1H-imidazol-5-yl)methyl]-1H-1,3-benzodiazole-6-carboxylic acid] | > 7.30 | –
Cc1ccc(N(C)c2ccc(C3CC3)c(C(=O)N3CCN(Cc4nc5ccc(C(=O)O)cc5n4C[C@@H]4CCO4)CC3)c2)c(Cl)c1 [Compound 93, 2-[(4-{5-[(2-chloro-4-methylphenyl)(methyl)amino]-2-cyclopropylbenzoyl}piperazin-1-yl)methyl]-1-{[(2S)-oxetan-2-yl]methyl}-1H-1,3-benzodiazole-6-carboxylic acid] | 6.30 to 7.30 | –
